Source: PMC11852716, “c-di-GMP phosphodiesterase ProE interacts with quorum sensing protein PqsE to promote pyocyanin production in Pseudomonas aeruginosa” (mSphere, 2025)

Target: T1, ProE (Pseudomonas aeruginosa, UniProt Q9HTQ9)
T1 construct: gene PA5295
Assay: surface plasmon resonance
Assay type: binding

T1 sequence (Q9HTQ9 entry or part of it): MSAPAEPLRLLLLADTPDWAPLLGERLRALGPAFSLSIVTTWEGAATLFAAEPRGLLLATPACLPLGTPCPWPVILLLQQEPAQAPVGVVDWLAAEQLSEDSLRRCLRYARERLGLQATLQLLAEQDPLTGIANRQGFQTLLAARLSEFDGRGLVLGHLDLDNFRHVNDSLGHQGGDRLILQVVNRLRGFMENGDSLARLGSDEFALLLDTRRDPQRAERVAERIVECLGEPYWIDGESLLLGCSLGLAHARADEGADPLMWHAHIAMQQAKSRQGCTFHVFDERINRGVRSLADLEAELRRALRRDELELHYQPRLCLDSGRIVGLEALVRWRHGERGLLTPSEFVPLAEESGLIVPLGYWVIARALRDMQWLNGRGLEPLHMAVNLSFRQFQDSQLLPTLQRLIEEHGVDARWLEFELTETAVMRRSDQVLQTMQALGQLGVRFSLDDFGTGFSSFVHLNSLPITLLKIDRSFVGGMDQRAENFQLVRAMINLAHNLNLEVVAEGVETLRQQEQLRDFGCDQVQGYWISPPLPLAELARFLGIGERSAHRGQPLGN

`Nc1nc2c(ncn2[C@@H]2O[C@@H]3CO[P@](=O)(O)O[C@H]4[C@@H](O)[C@H](n5cnc6c(=O)[nH]c(N)nc65)O[C@@H]4CO[P@](=O)(O)O[C@H]3[C@H]2O)c(=O)[nH]1` [c-di-GMP] was tested. Which Kd did it give?
The Kd was 2720 nM.
